# Laboratory results as given in patent US20260262643A1, “HERBICIDAL BENZOXAZINES” (FMC CORPORATION, priority 2022, published 2026).
# Assays:
# barnyardgrass [1] = assay: Test C preemergence; format: in vivo, Echinochloa crusgalli; settings: 0 to 100 scale (0 no effect, 100 complete control)
# Summary of the method: (§1)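 Soil-applied (pre) and foliar (post, 1–2 leaf, 2–10 cm) sprays; surfactant-containing non-phytotoxic solvent vehicle; loam/sand substrate. Readout: visual % control at 10 d, greenhouse, versus untreated.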
# blackgrass [2] = assay: Test C preemergence; format: in vivo, Alopecurus myosuroides; settings: 0 to 100 scale (0 no effect, 100 complete control)
# Summary of the method: as §1
# corn [3] = assay: Test C preemergence; format: in vivo, Zea mays; settings: 0 to 100 scale (0 no effect, 100 complete control)
# Summary of the method: as §1
# green foxtail [4] = assay: Test C preemergence; format: in vivo, Setaria viridis; settings: 0 to 100 scale (0 no effect, 100 complete control)
# Summary of the method: as §1
# kochia [5] = assay: Test C preemergence; format: in vivo, Bassia scoparia; settings: 0 to 100 scale (0 no effect, 100 complete control)
# Summary of the method: as §1
# oat, wild [6] = assay: Test C preemergence; format: in vivo, Avena fatua; settings: 0 to 100 scale (0 no effect, 100 complete control)
# Summary of the method: as §1
# pigweed, palmer [7] = assay: Test C preemergence; format: in vivo, Amaranthus palmeri; settings: 0 to 100 scale (0 no effect, 100 complete control)
# Summary of the method: as §1
# ragweed [8] = assay: Test C preemergence; format: in vivo, Ambrosia artemisiifolia; settings: 0 to 100 scale (0 no effect, 100 complete control)
# Summary of the method: as §1
# ryegrass, Italian [9] = assay: Test C preemergence; format: in vivo, Lolium multiflorum; settings: 0 to 100 scale (0 no effect, 100 complete control)
# Summary of the method: as §1
# soybean [10] = assay: Test C preemergence; format: in vivo, Glycine max; settings: 0 to 100 scale (0 no effect, 100 complete control)
# Summary of the method: as §1
# wheat [11] = assay: Test C preemergence; format: in vivo, Triticum aestivum; settings: 0 to 100 scale (0 no effect, 100 complete control)
# Summary of the method: as §1
# barnyardgrass [12] = assay: Test C postemergence; format: in vivo, Echinochloa crusgalli; settings: 10 days
# Summary of the method: as §1
# blackgrass [13] = assay: Test C postemergence; format: in vivo, Alopecurus myosuroides; settings: 10 days
# Summary of the method: as §1
# corn [14] = assay: Test C postemergence; format: in vivo, Zea mays; settings: 10 days
# Summary of the method: as §1
# green foxtail [15] = assay: Test C postemergence; format: in vivo, Setaria viridis; settings: 10 days
# Summary of the method: as §1
# kochia [16] = assay: Test C postemergence; format: in vivo, Bassia scoparia; settings: 10 days
# Summary of the method: as §1
# oat, wild [17] = assay: Test C postemergence; format: in vivo, Avena fatua; settings: 10 days
# Summary of the method: as §1
# pigweed, palmer [18] = assay: Test C postemergence; format: in vivo, Amaranthus palmeri; settings: 10 days
# Summary of the method: as §1
# ragweed [19] = assay: Test C postemergence; format: in vivo, Ambrosia artemisiifolia; settings: 10 days
# Summary of the method: as §1
# ryegrass, Italian [20] = assay: Test C postemergence; format: in vivo, Lolium multiflorum; settings: 10 days
# Summary of the method: as §1
# soybean [21] = assay: Test C postemergence; format: in vivo, Glycine max; settings: 10 days
# Summary of the method: as §1
# wheat [22] = assay: Test C postemergence; format: in vivo, Triticum aestivum; settings: 10 days
# Summary of the method: as §1
# galium = assay: Test C postemergence; format: in vivo, Galium aparine; settings: 10 days
# Summary of the method: as §1
# horseweed = assay: Test C postemergence; format: in vivo, Erigeron canadensis; settings: 10 days
# Summary of the method: as §1
# barnyardgrass [23] = assay: Test D flooded paddy test; format: in vivo, Echinochloa crus-galli; settings: 250 g ai/ha, applied to paddy water, visual rating after 13 to 14 days, scale 0 to 100 (0 no effect, 100 complete control)
# Summary of the method: (§2)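 At the 2-leaf stage, floodwater 3 cm deep received the test compound; that depth persisted throughout. Plants scored visually 13 to 14 days on, 0 (no effect) to 100 (complete control), dash indicating no result.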
# ducksalad = assay: Test D flooded paddy test; format: in vivo, Heteranthera limosa; settings: 250 g ai/ha, applied to paddy water, visual rating after 13 to 14 days, scale 0 to 100 (0 no effect, 100 complete control)
# Summary of the method: as §2
# rice = assay: Test D flooded paddy test; format: in vivo, Oryza sativa; settings: 250 g ai/ha, applied to paddy water, visual rating after 13 to 14 days, scale 0 to 100 (0 no effect, 100 complete control)
# Summary of the method: as §2
# sedge, umbrella = assay: Test D flooded paddy test; format: in vivo, Cyperus difformis; settings: 250 g ai/ha, applied to paddy water, visual rating after 13 to 14 days, scale 0 to 100 (0 no effect, 100 complete control)
# Summary of the method: as §2
# [24] = Preemergence, 500 g ai/ha, visual rating after 10 days
# [25] = Test C, preemergence, 125 g ai/ha
# [26] = 125 g ai/ha, postemergence, 0 to 100 scale, 0 no effect, 100 complete control
# [27] = Postemergence, 500 g ai/ha, visual 0 to 100 scale (0 no effect, 100 complete control)
compound,measurement,setting,value
Cc1cc(-n2cnc(C(C)C)n2)cc(C(=O)N2C[C@H](C)Oc3c(Cl)cccc32)c1C [Compound 259],"Plant response rating, Barnyardgrass",barnyardgrass [1]; [24],90
same,Barnyardgrass plant response rating,barnyardgrass [1]; [25],30
same,"Plant response rating, Blackgrass",blackgrass [2]; [24],70
same,Blackgrass plant response rating,blackgrass [2]; [25],50
same,"Plant response rating, Corn",corn [3]; [24],30
same,Corn plant response rating,corn [3]; [25],30
same,"Plant response rating, Foxtail, Green",green foxtail [4]; [24],100
same,"Foxtail, Green plant response rating",green foxtail [4]; [25],100
same,"Plant response rating, Kochia",kochia [5]; [24],100
same,Kochia plant response rating,kochia [5]; [25],90
same,"Plant response rating, Oat, Wild","oat, wild [6]; [24]",90
same,"Oat, Wild plant response rating","oat, wild [6]; [25]",60
same,"Plant response rating, Pigweed, Palmer","pigweed, palmer [7]; [24]",100
same,"Pigweed, Palmer plant response rating","pigweed, palmer [7]; [25]",100
same,"Plant response rating, Ragweed",ragweed [8]; [24],0
same,Ragweed plant response rating,ragweed [8]; [25],30
same,"Plant response rating, Ryegrass, Italian","ryegrass, Italian [9]; [24]",100
same,"Ryegrass, Italian plant response rating","ryegrass, Italian [9]; [25]",90
same,"Plant response rating, Soybean",soybean [10]; [24],100
same,Soybean plant response rating,soybean [10]; [25],20
same,"Plant response rating, Wheat",wheat [11]; [24],90
same,Wheat plant response rating,wheat [11]; [25],50
same,"Plant response rating, Barnyardgrass",barnyardgrass [12]; [26],20
same,"Plant response rating, Barnyardgrass",barnyardgrass [12]; [27],70
same,"Plant response rating, Blackgrass",blackgrass [13]; [26],70
same,"Plant response rating, Blackgrass",blackgrass [13]; [27],80
same,"Plant response rating, Corn",corn [14]; [26],10
same,"Plant response rating, Corn",corn [14]; [27],30
same,"Plant response rating, Foxtail, Green",green foxtail [15]; [26],40
same,"Plant response rating, Foxtail, Green",green foxtail [15]; [27],90
same,"Plant response rating, Kochia",kochia [16]; [26],70
same,"Plant response rating, Kochia",kochia [16]; [27],80
same,"Plant response rating, Oat, Wild","oat, wild [17]; [26]",30
same,"Plant response rating, Oat, Wild","oat, wild [17]; [27]",30
same,"Plant response rating, Pigweed, Palmer","pigweed, palmer [18]; [26]",90
same,"Plant response rating, Pigweed, Palmer","pigweed, palmer [18]; [27]",90
same,"Plant response rating, Ragweed",ragweed [19]; [26],20
same,"Plant response rating, Ragweed",ragweed [19]; [27],50
same,"Plant response rating, Ryegrass, Italian","ryegrass, Italian [20]; [26]",30
same,"Plant response rating, Ryegrass, Italian","ryegrass, Italian [20]; [27]",50
same,"Plant response rating, Soybean",soybean [21]; [26],100
same,"Plant response rating, Soybean",soybean [21]; [27],100
same,"Plant response rating, Wheat",wheat [22]; [26],20
same,"Plant response rating, Wheat",wheat [22]; [27],20
same,"Plant response rating, Galium",galium; [26],100
same,"Plant response rating, Galium",galium; [27],100
same,"Plant response rating, Horseweed",horseweed; [26],0
same,"Plant response rating, Horseweed",horseweed; [27],0
same,"Plant response rating, Barnyardgrass (Flood)",barnyardgrass [23],0
same,"Plant response rating, Ducksalad (Flood)",ducksalad,0
same,"Plant response rating, Rice (Flood)",rice,0
same,"Plant response rating, Sedge, Umbrella (Flood)","sedge, umbrella",0
